Assay results published in PMC8566451, “Lead optimization of novel quinolone chalcone compounds by a structure–activity relationship (SAR) study to increase efficacy and metabolic stability” (Scientific Reports, 2021).
Like-named read-outs stand apart in the source and are kept apart here.

Legend:
[1] = system: peripheral blood mononuclear cells (PBMC); assay: PBMC culture and MTS assay; format: cell-based, human; settings: for GI50: Homo sapiens, 48 h; for Selectivity Index (PBMC): PBMCs versus average GI50 of cancer cells
Method: Peripheral blood mononuclear cells from healthy donors were isolated by density gradient centrifugation using Ficoll solution as described below. Blood samples used were supplied by the Canadian Blood Services under the Institutional Research Ethics Board Project # 18–099, and no human participants or volunteers were involved directly in the current study.
Whole blood was gently layered over an equal volume of Ficoll and centrifuged at 800 × g for 20 min with no brake. The Buffy coat was carefully collected by pipetting in 50 mL tubes and topped off with PBS. The cell isolates were subsequently mixed by inversion and centrifuged at 300 × g for 12 min. The supernatant was then carefully aspirated without disturbing the cell pellet, and the PBMCs were resuspended in ammonium-chloride-potassium (ACK) lysis buffer. The tubes were left to stand for 15 min to allow for red blood cell lysis. PBS was again added to the cells and centrifuged at 300 × g for 12 min and pelleted PBMCs were resuspended in RPMI + 10% heat inactivated FBS. Following counting, cells were centrifuged again and cryopreserved with a freezing medium composed of 40% FBS, 10% DMSO and 50% culture medium. Cryovials were placed in a − 80 °C for 24 h prior to transfer to liquid nitrogen for long-term storage.
PBMC cryovials were transferred from liquid nitrogen and placed in a 37 °C water bath until almost completely thawed. 1 mL of pre-warmed medium was added drop-wise and the entire contents of the cryovial was transferred to a 15-mL tube. Pre-warmed medium was then added to bring the volume up to 10 mL. The PBMCs were centrifuged at 300 × g for 10 min, and the cell pellet was gently resuspended with 5 mL of warm medium. The tubes were subsequently placed in a 37 °C incubator in a 5° angled rack for 4 h. An additional 5 mL warm medium containing of 30 units/mL benzonase nuclease was then injected into the cell solution and left to stand at room temperature for 5 min before centrifugation for 10 min at 300 × g. The pelleted cells were resuspended in the medium with 100 units/mL of IL-2 (Cedarlane Laboratories, Burlington, ON, Canada) and a small aliquot was used for cell counting and viability staining. The cells were plated in 96-well plates at a density of 80,000–120,000 cellules/well/100 µL.
Following a 48-h incubation period, eight different concentrations of compound solutions using two to four-fold serial dilutions were added to the cells (100 µl). Cells were incubated for an additional 48 h and cytotoxicity was established using the CellTiter 96 cytotoxicity assay (Promega). 40 μl of the tetrazolium dye was added to each well of the plate and then incubated for 2 h. OD was then read directly at 490 nm using the automated Biotek Synergy H4 plate reader. The GI50 was calculated similarly to the SRB.

[2] = system: cancer cell lines (breast cancer, melanoma, cervical cancer); assay: SRB assay, average GI50 over cancer cell lines; format: cell-based; settings: for fold decrease in GI50 relative to CTR-17: average GI50 compared with CTR-17
Method: (§1) The SRB assay was used to assess drug-induced cytotoxicity and cell proliferation as previously described[2],[33],[34] with a few modifications. Briefly, cells were plated 10,000 to 25,000 cells/cm^2 in 96-well plates (100 µl medium) and allowed to adhere overnight. The cell counts were different for each cell line to ensure optimal cell growth for the duration of the assay. Eight different concentrations of compound solutions using 2–4 times serial dilutions (100 µl). Cells were then incubated for an additional 48 h and then fixed with 100 µl ice-cold 10% (w/v) trichloroacetic acid (TCA) (without removing the cell medium, final concentration, 3.3% of TCA) and stained with 0.4% SRB (w/v) in 1% acetic acid (v/v). The relative growth rate (%) was calculated for each of the compound concentrations according to the following formula: 100 * (T − T0)/(C − T0), in which T is the optical density (OD) after exposure to a certain concentration of the compound after 48 h, T0 is the OD at the start of drug exposure (time zero) and C is the control growth. The GI50 for each compound was obtained from a non-linear sigmoidal dose–response (variable slope) curve fitted by GraphPad Prism v.4.03 software.

MDA-MB231-TaxR = assay: Sulforhodamine B (SRB) assay; format: cell-based; settings: Homo sapiens, MDA-MB231-TaxR paclitaxel-resistant breast cancer cells, 48 h
Excerpt: We had initially determined that quinolone chalcones were promising anti-proliferative through a first round screening and identified CTR-17 and CTR-20 as favorable structures for anticancer activity. […] We carried out a comparative SAR study to determine if we could further optimize the quinolone chalcone to maximize efficacy. The Sulforhodamine B (SRB) assay was used to measure the anti-proliferative/cell killing activities of CTRs, for which several different cell lines were use: the cervical cancer HeLa, the breast cancer cell lines MDA-MB231, MDA-MB468, MDA-MB231TaxR (an induced paclitaxel-resistant sub-cell line of the MDA-MB231[9]) and MCF7. In addition, a subset was tested against the melanoma cell lines MZ-MEL-3.1, Mel-SOE, UKRV-Mel-38, UKRV-Mel-17 and MDA-MB-435 (Table 1, Supplemental Table S1).
as §1

[3] = system: primary human epidermal melanocytes; assay: GI50 on primary skin cells; format: cell-based; settings: for GI50: Homo sapiens, Melanocyte, primary skin cells; for Selectivity Index (primary skin cells): primary melanocytes versus average GI50 of cancer cells
Method: The human MDA-MB-231, MCF7, MDA-MB-468, RPMI-8226 and HeLa cell lines were purchased from ATCC and maintained in Dulbecco's Modified Eagle Medium (DMEM)—high glucose supplemented with 10% fetal bovine serum (FBS) and antibiotics/antimycotics. Cell line authentication was carried out by Genetica DNA Laboratories (Burlington, NC) using a short tandem repeat (STR) profiling method (March 2015; July 2015; September 2016). Melanoma cells E-055 (MZ-Mel-3), E-097 (Mel-SOE), E-112 (UKRV-Mel-38), E-157 (UKRV-Mel-17) were obtained from the European Searchable Tumour Line Database (ESTDAB) cell bank (a kind gift of Dr. Graham Pawelec, Tubingen University, Germany). MDA-MB-435 was purchased from the Division of Cancer Treatment and Diagnosis Tumor Repository. All melanoma cells were cultured in Roswell Park Memorial Institute (RPMI) medium supplemented with 10% FBS and P/S/antimycotics. Primary human epidermal melanocytes from normal adult abdominal skin were purchased from ATCC (cat # PCS-200–013) and Cell Applications (cat#104-05a). The melanocytes were cultured in the media supplied by the companies.
as §1

[4] = PBMC #1, MTS, read-out: GI50 PBMC #1
[5] = PBMC #2, MTS, read-out: GI50 PBMC #2
[6] = Table 1 and Supplemental Table S1 cell lines, read-out: GI50 range over the cancer cell lines
[7] = average over the cell lines of Table 1 or Supplemental Table S1, read-out: average GI50
[8] = Melanocytes #1, read-out: GI50 Melanocytes #1
[9] = Melanocytes #2, read-out: GI50 Melanocytes #2

| Compound | GI50 [1, 4] | GI50 [1, 5] | Selectivity Index (PBMC) [1] | SI, cancer over normal cells [2] | enhancement of potency over CTR-17 and CTR-20 [2] | GI50 [2, 6] | fold decrease in GI50 relative to CTR-17 [2] | GI50 [2, 7] | GI50 (MDA-MB231-TaxR) | GI50 [3, 8] | GI50 [3, 9] | Selectivity Index (primary skin cells) [3] |
| --- | --- | --- | --- | --- | --- | --- | --- | --- | --- | --- | --- | --- |
| COc1ccccc1C(=O)/C=C/c1cc2cccc(OC)c2[nH]c1=O [CTR-21, (E)-8-methoxy-3-(3-(2-methoxyphenyl)-3-oxoprop-1-enyl) quinolin-2(1H)-one] | 1.86 ± 0.336 µM | 1.63 ± 0.317 µM | 106 | > 100 fold | ~ 30 fold | 0.005 to 0.091 µM | 31 fold | 0.0164 µM | 0.032 ± 0.008 µM | 2.09 ± 0.804 µM | 3.05 ± 0.96 µM | 157 |
| CCOc1ccccc1C(=O)/C=C/c1cc2ccccc2[nH]c1=O [CTR-32, (E)-3-(3-(2-ethoxyphenyl)-3-oxoprop-1-enyl)quinolin-2(1H)-one] | 1.88 ± 0.147 µM | 0.787 ± 0.396 µM | 67 |  |  | 0.005 to 0.091 µM | 23 fold | 0.02 µM | 0.022 ± 0.004 µM | 2.63 ± 0.782 µM | 3.63 ± 1.08 µM | 158 |
